{"source": "patent US12226458B2", "about": "“System for providing an up-to-date and long-acting or ultra-long-acting insulin dose guidance recommendation to treat diabetes mellitus” (Novo Nordisk A/S, priority 2018, dated 2025)", "key": {"[1]": {"tested_on": "patients with type 2 diabetes", "details": "self-adjusted dose every 3 days from mean of previous 3 days' SMBG; 6 months; cited from earlier work"}, "[2]": {"tested_on": "people with Type 2 diabetes", "details": "INSIGHT; initial dose 10 units, increased by 1 unit each day until FPG ≤5.5 mmol/liter; cited from earlier work"}, "[3]": {"tested_on": "insulin-naïve subjects with type 2 diabetes", "test": "BEGIN ONCE SIMPLE USE 26-week randomized treat-to-target trial: HbA1c / glycemic control", "assay_type": "in vivo, human", "details": "for HbA1c change from baseline to Week 26 / HbA1c at Week 26: IDeg OD + metformin; for Patients achieving HbA1c<7% without confirmed hypoglycemia / Subjects achieving HbA1c<7.0% at end-of-trial: 26 weeks", "excerpt": "(§1) This 26-week, multi-center, open-label, randomized, treat-to-target study compared the efficacy and safety of IDeg administered once daily in combination with metformin in insulin-naïve subjects with type 2 diabetes using two different patient-driven titration algorithms: a “Simple” algorithm (IDegSimple), with dose adjustments based on one pre-breakfast SMBG measurement (N=111) versus a “Step-wise” algorithm (IDegStep-wise), with adjustments based on three consecutive pre-breakfast SMBG values (N=111). IDeg was administered using the FlexTouch® insulin pen (Novo Nordisk A/S, Bagsværd, Denmark), with once-weekly dose titration in both groups.\nThe study was conducted according to the Declaration of Helsinki (2008) and ICH Good Clinical Practice (1996) guidelines, with prior approval by appropriate ethics committees and patient consent obtained in writing prior to the start of any study-related activities. Eligible participants included insulin-naïve men or women ≥18 years of age, with type 2 diabetes, HbA1c 7.0-10.0% (inclusive), and body mass index (BMI) ≤45.0 kg/m^2, who were treated with ≥1000 mg/day metformin alone or in combination with one or two other oral antidiabetic medications (OADs) (including a sulfonylurea [SU] or glinide, dipeptidyl peptidase-4 [DPP-4] inhibitors, α-glucosidase inhibitors or thiazolidinediones [TZDs]), with unchanged dosing for ≥12 weeks prior to randomization. […] Subjects could be withdrawn from the trial due to withdrawal of consent, not fulfilling inclusion/exclusion criteria (randomized in error), non-compliance, or at the discretion of the investigator due to a safety concern. Subjects who were withdrawn after randomization were not to be replaced. This trial is registered at clinicaltrials.gov: NCT01326026.\n(§2) HbA1c was analyzed using a Bio-Rad high-performance liquid chromatography method at Visits 1 (screening), 2 (randomization), 14 (Week 12) and 28 (Week 26). Fasting plasma glucose (FPG) blood samples were assayed using a hexokinase-UV method at Visits 2, 14 and 28. At the first visit, subjects were provided with a glucose meter for SMBG measurement and instructions for use; blood glucose was measured with test strips calibrated to plasma glucose to obtain PG-equivalent values presented in this report. Subjects performed SMBG measurements before breakfast weekly after randomization and also performed an 8-point SMBG profile prior to Visits 2, 14 and 28."}, "[4]": {"tested_on": "insulin-naïve subjects with type 2 diabetes", "test": "BEGIN ONCE SIMPLE USE trial: fasting plasma glucose (hexokinase-UV)", "assay_type": "in vivo, human", "excerpt": "as §1, §2"}, "[5]": {"tested_on": "insulin-naïve subjects with type 2 diabetes", "details": "in vivo", "quoted_text": "This was a multinational (conducted in the US, Spain, Finland, and Germany), Phase 3b, multi-center, two-armed, parallel group, open-label, randomized, treat-to-target study that compared the efficacy and safety of IDeg OD [IDeg 100 U/mL, FlexTouch® pen, Novo Nordisk A/S, Bagsværd, Denmark], adjusted using two different titration algorithms in combination with metformin. The trial consisted of a 26-week period; total study duration was approximately 28 weeks (including 1 week for screening and a 7-day follow-up period). […]\nAdverse events (AEs) and hypoglycemic episodes were documented throughout the study, with confirmed hypoglycemia defined as episodes of severe hypoglycemia (requiring assistance from another person) and episodes with PG value <3.1 mmol/L (56 mg/dL). […] Laboratory safety variables, insulin dose and body weight were recorded at pre-specified intervals.\nChange from baseline in HbA1c after 26 weeks was analyzed using an analysis of variance (ANOVA) method with treatment, region, sex and antidiabetic therapy at screening as fixed factors, and age and baseline HbA1c as covariates. […] Change in FPG and change in body weight were analyzed using an ANOVA model similar to that used for the primary analysis, but with the relevant baseline value as covariate for each measure. […]"}, "[6]": {"tested_on": "insulin-naïve subjects with type 2 diabetes", "details": "in vivo", "remark": "listed apart in the source", "quoted_text": "(§3) This was a multinational (conducted in the US, Spain, Finland, and Germany), Phase 3b, multi-center, two-armed, parallel group, open-label, randomized, treat-to-target study that compared the efficacy and safety of IDeg OD [IDeg 100 U/mL, FlexTouch® pen, Novo Nordisk A/S, Bagsværd, Denmark], adjusted using two different titration algorithms in combination with metformin. The trial consisted of a 26-week period; total study duration was approximately 28 weeks (including 1 week for screening and a 7-day follow-up period). After discontinuing all OADs other than metformin, subjects were randomized 1:1 by an interactive voice/web response system (IV/WRS) to IDegSimple or IDegStep-wise insulin self-titration algorithms, as defined below. Subjects were instructed to self-titrate in accordance with their respective algorithms and continue with their pre-trial metformin dose. At randomization, Week 4 and Week 12, subjects in both treatment arms received diet and exercise counselling by an HCP.\n(§4) Adverse events (AEs) and hypoglycemic episodes were documented throughout the study, with confirmed hypoglycemia defined as episodes of severe hypoglycemia (requiring assistance from another person) and episodes with PG value <3.1 mmol/L (56 mg/dL). Nocturnal confirmed hypoglycemic episodes were those occurring between 00:01 h and 05:59 h (inclusive). Laboratory safety variables, insulin dose and body weight were recorded at pre-specified intervals.\n(§5) Treatment-emergent AEs, hypoglycaemic episodes, laboratory parameters, physical examination, electrocardiogram (ECG), fundoscopy/fundusphotography, vital signs, PRO (Device-Specific questionnaires I and II) and insulin dose were summarized with descriptive statistics.\n(§6) Treatment-emergent events occurring after first exposure and no later than 7 days after last exposure. Safety analysis set. n number of patients with events, % proportion of patients with events, E number of events, R number of events per 100 patient-years."}, "[7]": {"tested_on": "people with Type 2 diabetes", "details": "in vivo; cited from earlier work"}, "[8]": {"tested_on": "insulin-naïve subjects with type 2 diabetes", "test": "BEGIN ONCE SIMPLE USE trial: adverse events", "details": "IDegStep-wise arm; 154 days after starting trial drug, liver metastasis, considered unlikely related to treatment", "quoted_text": "as §3, §4, §5, §6"}}, "data": [{"substance": "insulin detemir", "values": [{"measurement": "HbA1c versus standard-of-care, physician-driven adjustments", "setting": "[1]", "value": "significantly lower HbA1c"}]}, {"substance": "insulin glargine", "values": [{"measurement": "End HbA1c", "setting": "[2]", "value": 7.0, "unit": "%"}]}, {"substance": "LysB29(Nε-hexadecandioyl-γ-Glu) des(B30) human insulin [IDeg]", "values": [{"measurement": "HbA1c change from baseline to Week 26", "setting": "[3]; IDegSimple arm (Simple titration algorithm)", "value": "−1.09", "unit": "%"}, {"measurement": "Patients achieving HbA1c<7% without confirmed hypoglycemia", "setting": "[3]; IDegSimple arm", "value": 40.6, "unit": "%"}, {"measurement": "Subjects achieving HbA1c<7.0% at end-of-trial", "setting": "[3]; IDegSimple arm", "value": 56.8, "unit": "%"}, {"measurement": "HbA1c at Week 26", "setting": "[3]; IDegSimple arm", "value": 7.0, "unit": "%"}, {"measurement": "HbA1c change from baseline to Week 26", "setting": "[3]; IDegStep-wise arm (Step-wise titration algorithm)", "value": "−0.93", "unit": "%"}, {"measurement": "Patients achieving HbA1c<7% without confirmed hypoglycemia", "setting": "[3]; IDegStep-wise arm", "value": 34.6, "unit": "%"}, {"measurement": "Subjects achieving HbA1c<7.0% at end-of-trial", "setting": "[3]; IDegStep-wise arm", "value": 41.4, "unit": "%"}, {"measurement": "HbA1c at Week 26", "setting": "[3]; IDegStep-wise arm", "value": 7.2, "unit": "%"}, {"measurement": "Estimated treatment difference (IDegSimple−IDegStep-wise) in HbA1c change", "setting": "[3]; Week 26, 95% CI [−0.39, 0.07]", "value": "−0.16", "unit": "%-points"}, {"measurement": "Non-inferiority of IDegSimple to IDegStep-wise in lowering HbA1c", "setting": "[3]; Week 26, non-inferiority limit 0.4%", "value": "non-inferior"}, {"measurement": "Fasting plasma glucose at Week 26", "setting": "[4]; IDegSimple arm", "value": 6.1, "unit": "mmol/L"}, {"measurement": "Fasting plasma glucose at Week 26", "setting": "[4]; IDegStep-wise arm", "value": 6.8, "unit": "mmol/L"}, {"measurement": "Estimated treatment difference (IDegSimple−IDegStep-wise) in FPG", "setting": "[4]; Week 26, 95% CI [−1.30, 0.17]", "value": -0.57, "unit": "mmol/L"}, {"measurement": "Severe hypoglycemic episodes", "setting": "[5]", "value": "One"}, {"measurement": "Headache: N number of patients with events", "setting": "[6]", "value": 8}, {"measurement": "SAE neoplasm event", "setting": "[6]", "value": "astrocytoma"}, {"measurement": "SAEs: E number of events", "setting": "[6]", "value": 8}, {"measurement": "SAEs: R number of events per 100 patient-years", "setting": "[6]", "value": "15 events per 100 patient-years"}, {"measurement": "Confirmed and nocturnal confirmed hypoglycemia rates with IDeg OD versus comparator insulin glargine", "setting": "[7]", "value": "lower than or similar to"}, {"measurement": "Deaths", "setting": "[8]", "value": "One"}]}]}
